Data on one compound can be found in patent US20050154060A1, “Anti-inflamatory inhalation pharmaceutical composition” (Galephar Pharmaceutical Research, Inc., priority 2003, published 2005).

In test [1] the test system is interleukine 6 (IL-6). Put plainly: Sputum IL-6 in 12-week placebo controlled study of NAL DPI in COPD patients. The format is in vivo, human (COPD patients). Conditions: for concentration in IL-6 decreased by: sputum, after 12 weeks of treatment. Here is the method: (§1) A new clinical trial has been performed with a dry powder inhaler (DPI) formulation of NAL in moderate to severely ill COPD patients. The study was performed with two doses of NAL DPI: 20 mg twice a day and 40 mg twice a day versus placebo.
(§2) The complete title of the study was “A 12-week, multicentre, randomised, double-blind, placebo controlled, pilot study of the safety and efficacy of Nacystelyn (20 mg b.i.d. and 40 mg b.i.d.) in patients with chronic obstructive pulmonary disease (COPD).”
(§3) NAL pulmonary administration was performed using a Dry Powder Inhaler consisting of a capsule containing NAL and a carrier, and of an inhalation device.
(§4) During the same study, sputum of COPD patients was collected at baseline (T0), after 4 weeks (w4) and after 12 weeks of treatment (T12).
(§5) The purpose of collecting sputum was to assess if NAL DPI administration could affect (increase or decrease) lung inflammation parameters in such patients. Lung inflammation may be reflected by the sputum concentration of some pro-inflammatory markers, called cytokines, such as interleukine 6 (IL-6) and interleukine 8 (IL-8) or anti-inflammatory markers, such as interleukine 10 (IL-10).
(§6) After collection of the mucus, the said mucus was centrifugated and the cytokines IL-8 and IL-6 were quantified using a validated analytical method. It should be noted that only subjects presenting a quantifiable value of cytokines at the time considered were taken into account.

Test [2] concerns interleukine 8 (IL-8). Briefly: Sputum IL-8 in 12-week placebo controlled study of NAL DPI in COPD patients. The format is in vivo, human (COPD patients). As for the experimental part:
as §1, §2, §3, §4, §5, §6

[3] abbreviates: sputum of COPD patients, NAL DPI 20 mg twice a day, week 4.
Where [4] appears, read: sputum of COPD patients, NAL DPI 20 mg twice a day, week 12.
The mark [5] stands for this setting: sputum of COPD patients, NAL DPI 40 mg twice a day, week 4.
The mark [6] stands for this setting: sputum of COPD patients, NAL DPI 40 mg twice a day, week 12.

Take `CC(=O)N[C@@H](CS)C(=O)O.NCCCC[C@H](N)C(=O)O` [NAL, L-Lysine-N-Acetylcysteinate]: the “effect on IL-6 in sputum (in words)” value in test [1] (sputum of COPD patients, 20 mg and 40 mg twice a day) was “decrease of IL-6 in the sputum of COPD patients in a dose related manner”. Further, the “change in inflammatory marker IL-6, percent change versus baseline” value is 24% in test [1] (setting [3]), −17% in test [1] (setting [4]), 70% in test [1] (setting [5]) and −42% in test [1] (setting [6]). Also, the “concentration in IL-6 decreased by” value in test [1] (NAL 20 mg) came out at 17%; in test [1] (NAL 40 mg) it was 42%. Further, the “effect on IL-8 levels in sputum (in words)” value in test [2] (sputum of COPD patients) is “significantly decrease the IL-8 levels in the sputum”. Also, the “change in inflammatory marker IL-8, percent change versus baseline” value in test [2] (setting [3]) is −13%; in test [2] (setting [4]), −17%; in test [2] (setting [5]), −2%; in test [2] (setting [6]), “+3%”. In addition, in test [2] (sputum, after 12 weeks of treatment, NAL 20 mg), the “levels of IL-8 decreased by” value is on record as 17%. In addition, the “levels of IL-8 increased by” value in test [2] (sputum, after 12 weeks of treatment, NAL 40 mg) turned out to be 3%.
